Laboratory results published in patent US20190127381A1, “SUBSTITUTED FUSED PYRIMIDINONE COMPOUNDS” (TORRENT PHARMACEUTICALS LIMITED, priority 2016, published 2019).

Tests used:
[1] = molecular target: T1, purified recombinant human PI3K enzyme δ (Homo sapiens, UniProt O00329); experiment: Inhibition of PI3-Kinase enzymatic activity (HTRF enzyme assay), δ; format: biochemical; conditions: 1 μM compound; PI3K δ 50 ng/well; PIP2 10 μM; ATP 200 μM; read-out: Percentage inhibition of PI3K activity, δ
T1 construct: purchased Invitrogen, USA
T1 sequence (O00329 whole entry): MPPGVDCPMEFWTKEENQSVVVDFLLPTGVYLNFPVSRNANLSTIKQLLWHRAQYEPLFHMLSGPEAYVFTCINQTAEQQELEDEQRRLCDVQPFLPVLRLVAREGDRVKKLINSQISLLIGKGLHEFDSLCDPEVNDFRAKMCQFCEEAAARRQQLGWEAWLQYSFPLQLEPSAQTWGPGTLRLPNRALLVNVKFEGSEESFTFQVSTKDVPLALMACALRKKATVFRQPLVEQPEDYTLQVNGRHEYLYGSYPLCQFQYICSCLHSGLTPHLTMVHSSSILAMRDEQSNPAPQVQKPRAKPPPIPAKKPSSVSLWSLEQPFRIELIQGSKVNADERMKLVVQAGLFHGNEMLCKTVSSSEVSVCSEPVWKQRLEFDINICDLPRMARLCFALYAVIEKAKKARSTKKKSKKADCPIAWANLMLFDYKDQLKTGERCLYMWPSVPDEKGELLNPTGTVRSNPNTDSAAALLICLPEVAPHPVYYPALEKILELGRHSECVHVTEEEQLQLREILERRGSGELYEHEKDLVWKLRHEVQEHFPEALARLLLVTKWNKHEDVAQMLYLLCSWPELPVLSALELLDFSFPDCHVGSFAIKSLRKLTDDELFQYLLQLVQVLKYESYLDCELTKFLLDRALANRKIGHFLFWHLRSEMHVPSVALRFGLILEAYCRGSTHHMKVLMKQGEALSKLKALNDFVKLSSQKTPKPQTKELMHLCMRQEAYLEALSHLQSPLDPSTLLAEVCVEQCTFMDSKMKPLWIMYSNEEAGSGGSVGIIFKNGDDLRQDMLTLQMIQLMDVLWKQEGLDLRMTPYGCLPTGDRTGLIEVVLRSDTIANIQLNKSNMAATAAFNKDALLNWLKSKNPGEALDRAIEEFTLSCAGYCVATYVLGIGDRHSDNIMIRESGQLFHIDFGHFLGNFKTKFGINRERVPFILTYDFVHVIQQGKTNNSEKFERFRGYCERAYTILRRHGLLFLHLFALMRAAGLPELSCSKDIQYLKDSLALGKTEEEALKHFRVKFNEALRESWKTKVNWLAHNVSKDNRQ
T1 sequence (P27986 whole entry partner): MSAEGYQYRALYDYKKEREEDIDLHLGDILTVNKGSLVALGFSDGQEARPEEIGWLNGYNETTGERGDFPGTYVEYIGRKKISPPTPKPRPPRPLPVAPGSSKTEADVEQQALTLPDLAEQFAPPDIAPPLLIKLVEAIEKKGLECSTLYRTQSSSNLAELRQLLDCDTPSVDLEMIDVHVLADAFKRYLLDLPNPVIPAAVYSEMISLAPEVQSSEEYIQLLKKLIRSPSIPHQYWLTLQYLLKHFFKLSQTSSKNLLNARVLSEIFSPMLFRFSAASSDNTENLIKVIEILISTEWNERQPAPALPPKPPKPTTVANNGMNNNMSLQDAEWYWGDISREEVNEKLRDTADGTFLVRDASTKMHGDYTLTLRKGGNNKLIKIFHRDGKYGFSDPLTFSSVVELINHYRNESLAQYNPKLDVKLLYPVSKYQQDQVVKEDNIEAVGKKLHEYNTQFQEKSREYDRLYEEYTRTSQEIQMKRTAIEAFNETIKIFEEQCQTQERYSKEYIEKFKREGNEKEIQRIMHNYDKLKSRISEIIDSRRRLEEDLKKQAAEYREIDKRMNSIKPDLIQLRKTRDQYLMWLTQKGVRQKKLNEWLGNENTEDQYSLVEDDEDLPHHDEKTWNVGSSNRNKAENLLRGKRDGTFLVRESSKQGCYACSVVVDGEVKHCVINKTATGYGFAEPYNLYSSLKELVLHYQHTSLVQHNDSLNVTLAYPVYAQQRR
Protocol: (§1) Inhibition of PI3-Kinase enzymatic activity was determined using a homogeneous time-resolved fluorescence (HTRF) kit from Eurofins. 1 μM of Compounds of present invention were premixed with DMSO. The experiment was initiated by mixing 1.0% DMSO as vehicle/compounds with purified recombinant human PI3K enzyme {δ (50 ng/well); γ (100 ng/well)} (Invitrogen, USA) and substrate (PIP2, 10 μM) in the wells and incubation for 15 min at room temperature. There after ATP was added (δ at 200 μM, and γ at 50 μM) in to the wells containing reaction mixture, followed by re-incubation for 30 minutes at room temperature. Reaction was terminated by addition of a stopping solution and was further incubated for 4 hours at room temperature before reading using Envision multimode reader (Perkin Elmer). Percentage inhibition of PI3K activity was calculated by determining ratio of specific europium 665 nm energy transfer signal to reference 615 nm signals.

[2] = molecular target: T2, purified recombinant human PI3K enzyme γ (Homo sapiens, UniProt P48736); experiment: Inhibition of PI3-Kinase enzymatic activity (HTRF enzyme assay), γ; format: biochemical; conditions: 1 μM compound; PI3K γ 100 ng/well; PIP2 10 μM; ATP 50 μM; read-out: Percentage inhibition of PI3K activity, γ
T2 construct: purchased Invitrogen, USA
T2 sequence (P48736 whole entry): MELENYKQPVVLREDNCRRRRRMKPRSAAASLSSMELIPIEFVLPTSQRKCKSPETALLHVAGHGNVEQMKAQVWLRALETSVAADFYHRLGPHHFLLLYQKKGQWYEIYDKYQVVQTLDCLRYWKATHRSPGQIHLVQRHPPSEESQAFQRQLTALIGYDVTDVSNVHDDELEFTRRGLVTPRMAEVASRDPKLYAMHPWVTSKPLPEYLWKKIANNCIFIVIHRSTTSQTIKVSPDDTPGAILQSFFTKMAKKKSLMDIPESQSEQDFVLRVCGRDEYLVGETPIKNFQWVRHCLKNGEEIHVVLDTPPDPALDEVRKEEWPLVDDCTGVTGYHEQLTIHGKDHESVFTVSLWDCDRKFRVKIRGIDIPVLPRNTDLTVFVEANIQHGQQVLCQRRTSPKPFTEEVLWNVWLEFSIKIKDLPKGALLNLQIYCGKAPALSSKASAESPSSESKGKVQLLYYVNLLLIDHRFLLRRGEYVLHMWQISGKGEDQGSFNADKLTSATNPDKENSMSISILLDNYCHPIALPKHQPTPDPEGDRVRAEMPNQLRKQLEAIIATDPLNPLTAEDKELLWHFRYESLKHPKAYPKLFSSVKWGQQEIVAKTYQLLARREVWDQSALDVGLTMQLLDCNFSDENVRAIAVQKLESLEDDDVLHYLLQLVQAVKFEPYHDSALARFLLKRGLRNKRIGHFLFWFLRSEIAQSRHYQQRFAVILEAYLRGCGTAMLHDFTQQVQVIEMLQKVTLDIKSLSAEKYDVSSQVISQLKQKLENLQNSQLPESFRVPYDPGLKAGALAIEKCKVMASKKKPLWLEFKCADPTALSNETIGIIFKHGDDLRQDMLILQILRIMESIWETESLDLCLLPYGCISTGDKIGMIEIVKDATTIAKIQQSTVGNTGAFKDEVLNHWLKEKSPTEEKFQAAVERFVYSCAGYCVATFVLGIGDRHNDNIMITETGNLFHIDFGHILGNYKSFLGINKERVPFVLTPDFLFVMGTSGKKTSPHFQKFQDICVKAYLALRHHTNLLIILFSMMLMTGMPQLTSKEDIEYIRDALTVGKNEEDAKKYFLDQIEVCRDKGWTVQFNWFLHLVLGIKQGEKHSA
Protocol: as §1

SMILES	inhibition at 1 µM [1] [%]	inhibition at 1 µM [2] [%]
CC1(C)Cc2c(-c3nn(Cc4nc5cccc(C#CCN6CCOCC6)c5c(=O)n4C4(c5ccsc5)CC4)c4ncnc(N)c34)ccc(O)c2O1 [compound 72, 2-{[4-amino-3-(7-hydroxy-2,2-dimethyl-2,3-dihydro-1-benzofuran-4-yl)-1H-pyrazolo[3,4-d]pyrimidin-1-yl]methyl}-5-[3-(morpholin-4-yl)prop-1-yn-1-yl]-3-[1-(thiophen-3-yl)cyclopropyl]quinazolin-4(3H)-one]	80 to 100	80 to 100
CC1(C)Cc2c(-c3nn(Cc4nc5cccc(-c6ccsc6)c5c(=O)n4-n4cccc4)c4ncnc(N)c34)ccc(O)c2O1 [compound 14, 2-{[4-amino-3-(7-hydroxy-2,2-dimethyl-2,3-dihydro-1-benzofuran-4-yl)-1H-pyrazolo[3,4-d]pyrimidin-1-yl]methyl}-3-(1H-pyrrol-1-yl)-5-(thiophen-3-yl)quinazolin-4(3H)-one]	80 to 100	80 to 100
CC1(C)Cc2c(-c3nn(Cc4nc5cccc(Cl)c5c(=O)n4-n4cccc4)c4ncnc(N)c34)ccc(O)c2O1 [Compound No. 3, 2-{[4-amino-3-(7-hydroxy-2,2-dimethyl-2,3-dihydro-1-benzofuran-4-yl)-1H-pyrazolo[3,4-d]pyrimidin-1-yl]methyl}-5-chloro-3-(1H-pyrrol-1-yl)quinazolin-4(3H)-one]	80 to 100	80 to 100
Cc1ccc(C2(n3c(Cn4nc(-c5ccc(O)c6c5CC(C)(C)O6)c5c(N)ncnc54)nc4cccc(C#CCO)c4c3=O)CC2)cc1 [compound 37, 2-{[4-amino-3-(7-hydroxy-2,2-dimethyl-2,3-dihydro-1-benzofuran-4-yl)-1H-pyrazolo[3,4-d]pyrimidin-1-yl]methyl}-5-(3-hydroxyprop-1-yn-1-yl)-3-[1-(4-methylphenyl)cyclopropyl]quinazolin-4(3H)-one]	80 to 100	80 to 100
Cc1ccc(-c2cccc3nc(Cn4nc(-c5ccc(O)c6c5CC(C)(C)O6)c5c(N)ncnc54)n(C4(c5ccccc5)CC4)c(=O)c23)o1 [compound 17, 2-{[4-amino-3-(7-hydroxy-2,2-dimethyl-2,3-dihydro-1-benzofuran-4-yl)-1H-pyrazolo[3,4-d]pyrimidin-1-yl]methyl}-5-(5-methylfuran-2-yl)-3-(1-phenylcyclopropyl)quinazolin-4(3H)-one]	60 to 80	60 to 80
Cn1cccc1-c1cccc2nc(Cn3nc(-c4ccc(O)c5c4CC(C)(C)O5)c4c(N)ncnc43)n(-n3cccc3)c(=O)c12 [compound 71, 2-{[4-amino-3-(7-hydroxy-2,2-dimethyl-2,3-dihydro-1-benzofuran-4-yl)-1H-pyrazolo[3,4-d]pyrimidin-1-yl]methyl}-5-(1-methyl-1H-pyrrol-2-yl)-3-(1H-pyrrol-1-yl)quinazolin-4(3H)-one]	80 to 100	80 to 100
Cc1ccc(C)n1-n1c(Cn2nc(-c3ccc(O)c4c3CC(C)(C)O4)c3c(N)ncnc32)nc2cccc(C#CCN3CCOCC3)c2c1=O [compound 80, 2-{[4-amino-3-(7-hydroxy-2,2-dimethyl-2,3-dihydro-1-benzofuran-4-yl)-1H-pyrazolo[3,4-d]pyrimidin-1-yl]methyl}-3-(2,5-dimethyl-1H-pyrrol-1-yl)-5-[3-(morpholin-4-yl)prop-1-yn-1-yl]quinazolin-4(3H)-one]	80 to 100	60 to 80
CCCn1cc(-c2cccc3nc(Cn4nc(-c5ccc(O)c6c5CC(C)(C)O6)c5c(N)ncnc54)n(-n4c(C)ccc4C)c(=O)c23)cn1 [compound 89, 2-{[4-amino-3-(7-hydroxy-2,2-dimethyl-2,3-dihydro-1-benzofuran-4-yl)-1H-pyrazolo[3,4-d]pyrimidin-1-yl]methyl}-3-(2,5-dimethyl-1H-pyrrol-1-yl)-5-(1-propyl-1H-pyrazol-4-yl)quinazolin-4(3H)-one]	80 to 100	80 to 100
CC1(C)Cc2c(-c3nn(Cc4nc5cccc(C#CC6CC6)c5c(=O)n4-n4cccc4)c4ncnc(N)c34)ccc(O)c2O1 [compound 48, 2-{[4-amino-3-(7-hydroxy-2,2-dimethyl-2,3-dihydro-1-benzofuran-4-yl)-1H-pyrazolo[3,4-d]pyrimidin-1-yl]methyl}-5-(cyclopropylethynyl)-3-(1H-pyrrol-1-yl)quinazolin-4(3H)-one]	80 to 100	80 to 100
CC1(C)Cc2c(-c3nn(Cc4nc5cccc(C#CCN6CCNC(=O)C6)c5c(=O)n4-n4cccc4)c4ncnc(N)c34)ccc(O)c2O1 [compound 58, 2-{[4-amino-3-(7-hydroxy-2,2-dimethyl-2,3-dihydro-1-benzofuran-4-yl)-1H-pyrazolo[3,4-d]pyrimidin-1-yl]methyl}-5-[3-(3-oxopiperazin-1-yl)prop-1-yn-1-yl]-3-(1H-pyrrol-1-yl)quinazolin-4(3H)-one]	80 to 100	80 to 100
Cn1nccc1-c1cccc2nc(Cn3nc(-c4ccc(O)c5c4CC(C)(C)O5)c4c(N)ncnc43)n(C3(c4ccccc4)CC3)c(=O)c12 [compound 30, 2-{[4-amino-3-(7-hydroxy-2,2-dimethyl-2,3-dihydro-1-benzofuran-4-yl)-1H-pyrazolo[3,4-d]pyrimidin-1-yl]methyl}-5-(1-methyl-1H-pyrazol-5-yl)-3-(1-phenylcyclopropyl)quinazolin-4(3H)-one]	80 to 100	60 to 80
Cc1ccc(C)n1-n1c(Cn2nc(-c3ccc(O)c4c3CC(C)(C)O4)c3c(N)ncnc32)nc2cccc(-c3cnn(C)c3)c2c1=O [compound 62, 2-{[4-amino-3-(7-hydroxy-2,2-dimethyl-2,3-dihydro-1-benzofuran-4-yl)-1H-pyrazolo[3,4-d]pyrimidin-1-yl]methyl}-3-(2,5-dimethyl-1H-pyrrol-1-yl)-5-(1-methyl-1H-pyrazol-4-yl)quinazolin-4(3H)-one]	80 to 100	60 to 80
CC1(C)Cc2c(-c3nn(Cc4nc5cccc(C#CC6CC6)c5c(=O)n4C4(c5ccsc5)CC4)c4ncnc(N)c34)ccc(O)c2O1 [compound 76, 2-{[4-amino-3-(7-hydroxy-2,2-dimethyl-2,3-dihydro-1-benzofuran-4-yl)-1H-pyrazolo[3,4-d]pyrimidin-1-yl]methyl}-5-(cyclopropylethynyl)-3-[1-(thiophen-3-yl)cyclopropyl]quinazolin-4(3H)-one]	80 to 100	80 to 100
CC1(C)Cc2c(-c3nn(Cc4nc5cccc(-c6ccncc6)c5c(=O)n4-n4cccc4)c4ncnc(N)c34)ccc(O)c2O1 [compound 18, 2-{[4-amino-3-(7-hydroxy-2,2-dimethyl-2,3-dihydro-1-benzofuran-4-yl)-1H-pyrazolo[3,4-d]pyrimidin-1-yl]methyl}-5-(pyridin-4-yl)-3-(1H-pyrrol-1-yl)quinazolin-4(3H)-one]	80 to 100	60 to 80
CC1(C)Cc2c(-c3nn(Cc4nc5cccc(-c6cccnc6)c5c(=O)n4C4(c5ccccc5)CC4)c4ncnc(N)c34)ccc(O)c2O1 [compound 16, 2-{[4-amino-3-(7-hydroxy-2,2-dimethyl-2,3-dihydro-1-benzofuran-4-yl)-1H-pyrazolo[3,4-d]pyrimidin-1-yl]methyl}-3-(1-phenylcyclopropyl)-5-(pyridin-3-yl)quinazolin-4(3H)-one]	80 to 100	60 to 80
CCn1cc(-c2cccc3nc(Cn4nc(-c5ccc(O)c6c5CCC6)c5c(N)ncnc54)n(-n4c(C)ccc4C)c(=O)c23)cn1 [compound 94, 2-{[4-amino-3-(7-hydroxy-2,3-dihydro-1H-inden-4-yl)-1H-pyrazolo[3,4-d]pyrimidin-1-yl]methyl}-3-(2,5-dimethyl-1H-pyrrol-1-yl)-5-(1-ethyl-1H-pyrazol-4-yl)quinazolin-4(3H)-one]	80 to 100	80 to 100
Cc1cccc2nc(Cn3nc(-c4ccc(O)c5c4CC(C)(C)O5)c4c(N)ncnc43)n(C3(c4ccccc4)CC3)c(=O)c12 [Compound No. 8, 2-{[4-amino-3-(7-hydroxy-2,2-dimethyl-2,3-dihydro-1-benzofuran-4-yl)-1H-pyrazolo[3,4-d]pyrimidin-1-yl]methyl}-5-methyl-3-(1-phenylcyclopropyl)quinazolin-4(3H)-one]	80 to 100	60 to 80
COc1ccc(-c2nn(Cc3nc4cccc(C)c4c(=O)n3-n3c(C)ccc3C)c3ncnc(N)c23)c2c1OC(C)(C)C2 [compound 78, 2-{[4-amino-3-(7-methoxy-2,2-dimethyl-2,3-dihydro-1-benzofuran-4-yl)-1H-pyrazolo[3,4-d]pyrimidin-1-yl]methyl}-3-(2,5-dimethyl-1H-pyrrol-1-yl)-5-methylquinazolin-4(3H)-one]	80 to 100	60 to 80
CC1(C)Cc2c(-c3nn(Cc4nc5cccc(Br)c5c(=O)n4-n4cccc4)c4ncnc(N)c34)ccc(O)c2O1 [Compound No. 9, 2-{[4-amino-3-(7-hydroxy-2,2-dimethyl-2,3-dihydro-1-benzofuran-4-yl)-1H-pyrazolo[3,4-d]pyrimidin-1-yl]methyl}-5-bromo-3-(1H-pyrrol-1-yl)quinazolin-4(3H)-one]	80 to 100	80 to 100
